In the NIST ThermoML archive (doi:10.1021/je7001144):
± gives the expanded uncertainty stated by the source.

Settings: Liquid, Ebulliometric method (Recirculating still)

| SMILES | vapor or sublimation pressure (267.67 K) | vapor or sublimation pressure (272.54 K) | vapor or sublimation pressure (277.45 K) | vapor or sublimation pressure (282.62 K) |
| --- | --- | --- | --- | --- |
| FC(F)=C(F)Cl [1-chloro-1,2,2-trifluroethene] | 248 ± 1 kPa | 294.4 ± 1.2 kPa | 347.8 ± 1.4 kPa | 408.1 ± 1.6 kPa |
| C=COC(F)(F)F [perfluoromethyl vinyl ether] | 222.4 ± 0.9 kPa | 264.7 ± 1.1 kPa | 313.2 ± 1.3 kPa | 367.3 ± 1.5 kPa |
